# Results taken from publication PMC4942781, “A sodium channel inhibitor ISTX-I with a novel structure provides a new hint at the evolutionary link between two toxin folds” (Scientific Reports, 2016).
# Entries after “also recorded” stand apart in the source; their conditions may differ. Bridge positions count the residues as written; N and C are the ends. Ends that are not written are not given here.
# Tested on: potassium channel
# Assay: Whole-cell patch clamp, Kv currents in DRG neurons
# Format: cell-based, rat
# Conditions: 20 μM ISTX-I, 500 ms depolarized potential of +10 mV
# Method: Rat DRG cells were acutely dissociated from adult Sprague-Dawley rats[30]. Briefly, adult rats of either sex with body weights of approximately 200 g were killed by decapitation. The dorsal root ganglia were isolated quickly from the spinal cord and then transferred into Dulbecco’s modified Eagle’s medium (DMEM) containing trypsin I (0.15 mg/mL) and collagenase II (0.3 mg/mL) for incubation with an oscillation frequency of 200 rpm at 37 °C for 20 min. The trypsin inhibitor II-S (1 mg/mL) was added to terminate the reaction. […]
# DRG neurons with a large diameter (>[…]) and those with a relatively small diameter (<[…]) were chosen by measuring TTX-s and TTX-r currents, respectively. […] Potassium, calcium, and sodium currents were recorded in experimental cells using whole-cell patch-clamp recordings at room temperature, which were performed with an HEK EPC10 patch-clamp amplifier. […] Experimental data were acquired and analyzed using the programs patch master and Sigmaplot 9.0 (Sigma, USA). […]
# Currents were recorded from experimental cells using whole-cell patch clamptechnique at room temperature (22–25 °C). […]
# (pH 7.4). K+ currents were recorded using an internal solution containing the followings (in mM): KCl 140, MgCl2 2.5, HEPES 10, and EGTA 11 (pH 7.2). […]
sequence,measurement,value
"LCSENGDCAADECCVDTVFEGDMVTRSCEKTTGNFTECPGLTPIA (disulfide 2-14, 8-28, 13-38) [ISTX-I]",effect on potassium channels,no obvious effects; also recorded: No effects were detected
